Here are results for one molecule from US10330685B2, “Markers for sepsis treatment” (priority 2014, dated 2019).

Each structure is given as a SMILES string.

In one data set the test system is septic shock. The note with it: septic shock patients; cited from earlier work.
The test system of another data set is sepsis patients. The data set can be described thus: Phase I clinical trial of L-carnitine treatment for sepsis: survival. The data set is classed as in vivo, human. How it is done:
(§1) These and other features, aspects, and advantages of the present technology will become better understood with regard to the following drawings, which represent the analysis of patients enrolled in a phase I study of L-carnitine in septic shock (see, e.g., Puskarich et al. J Parenter Enteral Nutr 38(6): 736-743, incorporated herein by reference in its entirety). From this study, serum samples collected from carnitine-treated (n=16) and placebo-treated (n=14) patients were assayed by ^1H-nuclear magnetic resonance (NMR) and the resulting spectra were used to identify and quantify metabolites; a total of 38 metabolites were identified in each sample:
Serum samples were collected from patients enrolled in a previously published double-blind randomized phase I clinical trial of L-carnitine treatment for sepsis (see, e.g., Puskarich et al., J Parenter Enteral Nutr 38(6): 736-743, incorporated herein by reference in its entirety). From this study, serum samples collected from carnitine-treated (n=16) and placebo-treated (n=15) patients were assayed by ^1H-nuclear magnetic resonance (NMR) and the resulting spectra were used to identify and quantify metabolites; a total of 38 metabolites were identified in each sample.
Serum was assayed prior to (T0) and following (T24, T48) treatment with a single 12-g dose of LC or placebo. […]

The nature of data set [1]: Serum metabolites by 1H-NMR before and 24 h and 48 h after L-carnitine treatment. The format is in vivo, human. How it is done:
as §1
Serum samples were collected from patients enrolled in a previously published double-blind randomized phase I clinical trial of L-carnitine treatment for sepsis (see, e.g., Puskarich et al., J Parenter Enteral Nutr 38(6): 736-743, incorporated herein by reference in its entirety). From this study, serum samples collected from carnitine-treated (n=16) and placebo-treated (n=15) patients were assayed by ^1H-nuclear magnetic resonance (NMR) and the resulting spectra were used to identify and quantify metabolites; a total of 38 metabolites were identified in each sample. […]
The levels of these metabolites were also measured in samples acquired at 24 hours and 48 hours after treatment with L-carnitine. […]

For `C[N+](C)(C)C[C@H](O)CC(=O)[O-]` [L-carnitine], the “hemodynamic parameters (right atrial pressure, mean arterial pressure, arterial oxygenation)” value in the data set on septic shock is on record as “improvements”. In addition, the mortality rate result in the data set on sepsis patients ("high" ketone sepsis patients treated with LC compared with "low" ketone patients) is “higher mortality rate”. For the same molecule, the survival entry in the data set with sepsis patients (patients with "low" amounts of ketone prior to L-carnitine treatment vs patients with "high" amounts) is listed as “significantly better survival”. Besides, in data set [1] (in vivo), the “carnitine levels at 24 hours” value is on record as “higher carnitine levels”. In addition, in data set [1] (serum, LC-treated patients, following a profound decline), the citrate levels result is “increased”.
